Source: patent publication US20060281763A1, “Carboxamide inhibitors of TGFbeta” (priority 2005, published 2006)

Each compound was assayed against T1, TGFβ R1 (Homo sapiens, UniProt P36897) (assay: TGFβ R1 autophosphorylation protocol (33P-ATP, phosphocellulose filter plate)). Details: 10 uM ATP, 170 nM TGFβ R1, 20 minutes at room temperature, read-out: IC50 for Kinase Inhibition.
T1 sequence (P36897 34-503): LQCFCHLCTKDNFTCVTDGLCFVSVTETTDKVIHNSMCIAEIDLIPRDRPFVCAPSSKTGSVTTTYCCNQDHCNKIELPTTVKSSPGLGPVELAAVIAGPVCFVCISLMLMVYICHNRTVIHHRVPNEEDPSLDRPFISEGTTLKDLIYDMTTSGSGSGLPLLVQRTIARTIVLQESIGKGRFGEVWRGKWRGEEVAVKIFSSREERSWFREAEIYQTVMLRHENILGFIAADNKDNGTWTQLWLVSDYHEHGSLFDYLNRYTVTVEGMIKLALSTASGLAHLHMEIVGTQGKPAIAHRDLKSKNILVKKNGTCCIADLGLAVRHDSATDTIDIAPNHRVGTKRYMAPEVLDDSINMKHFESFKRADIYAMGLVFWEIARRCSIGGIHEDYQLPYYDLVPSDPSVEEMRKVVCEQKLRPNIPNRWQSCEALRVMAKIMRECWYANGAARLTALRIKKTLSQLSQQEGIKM
Format: biochemical
How it was run: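 Incorporation of 33P from γ-33P-ATP (10 uM ATP final) into the kinase itself (170 nM) measured by phosphocellulose capture and scintillation counting. Incubation 20 min at room temperature in 20 mM MOPS pH 7 with […]; final DMSO ≤1%.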

| IC50 [nM] | Structure (SMILES) |
| --- | --- |
| 44 | COc1cnc(-c2cc(Cl)ccc2F)nc1Nc1ccncc1C(=O)NCCCNC(=O)CO[C@H]1O[C@H](CO)[C@H](O)[C@H](O)[C@H]1O [Compound 140, 4-[2-(5-Chloro-2-fluoro-phenyl)-5-methoxy-pyrimidin-4-ylamino]-N-{3-[2-(3,4,5-trihydroxy-6-hydroxymethyl-tetrahydro-pyran-2-yloxy)-acetylamino]-propyl}-nicotinamide] |
| 11800 | COc1cnc(-c2cc(Cl)ccc2F)nc1Nc1ccncc1C(=O)NCC1(O)CCCCC1 [Compound 61, 4-[2-(5-Chloro-2-fluoro-phenyl)-5-methoxy-pyrimidin-4-ylamino]-N-(1-hydroxy-cyclohexylmethyl)-nicotinamide] |
| 490 | O=C(NCCO)c1cnccc1Nc1nc(-c2cc(Cl)ccc2F)ncc1N1CCCC1 [Compound 24, 4-[2-(5-Chloro-2-fluoro-phenyl)-5-pyrrolidin-1-yl-pyrimidin-4-ylamino]-N-(2-hydroxy-ethyl)-nicotinamide] |
| 327 | COc1cnc(-c2cc(Cl)ccc2F)nc1Nc1ccncc1C(=O)NCCCNC(=O)COC1O[C@H](COC(C)=O)[C@@H](OC(C)=O)[C@H](OC(C)=O)[C@H]1OC(C)=O (stereo partly drawn) [Compound 133] |
| 130 | COc1cnc(-c2cc(Cl)ccc2F)nc1Nc1ccncc1C(=O)NC[C@H](O)[C@@H](O)CN [Compound 55, N-(4-Amino-2,3-dihydroxy-butyl)-4-[2-(5-chloro-2-fluoro-phenyl)-5-methoxy-pyrimidin-4-ylamino]-nicotinamide] |
| 10 | COc1cnc(-c2cc(Cl)ccc2F)nc1Nc1ccncc1C(=O)NCCNCCOC1O[C@H](CO)[C@@H](O)[C@H](O)[C@H]1O (stereo partly drawn) [Compound 144, 4-[2-(5-chloro-2-fluoro-phenyl)-5-methoxy-pyrimidin-4-ylamino]-N-{2-[2-(3,4,5-trihydroxy-6-hydroxymethyl-tetrahydro-pyran-2-yloxy)-ethylamino]-ethyl)-nicotinamide] |
| 120 | COc1cnc(-c2cc(Cl)ccc2F)nc1Nc1ccncc1C(=O)NCCCNCCNC(C)C [Compound 14] |
| 207 | COc1cnc(-c2cc(Cl)ccc2F)nc1Nc1ccncc1C(=O)NC1CCN(C(=O)CC2O[C@H](CO)[C@@H](O)[C@H](O)[C@H]2O)CC1 (stereo partly drawn) [Compound 148, 4-[2-(5-Chloro-2-fluoro-phenyl)-5-methoxy-pyrimidin-4-ylamino]-N-{1-[2-(3,4,5-trihydroxy-6-hydroxymethyl-tetrahydro-pyran-2-yl)-acetyl]-piperidin-4-yl}-nicotinamide] |
| 155 | CNC(=O)c1cnccc1Nc1nc(-c2cc(Cl)ccc2F)ncc1Cl [Compound 119, 4-[5-Chloro-2-(5-chloro-2-fluoro-phenyl)-pyrimidin-4-ylamino]-N-methyl-nicotinamide] |
| 59 | COc1cnc(-c2cc(Cl)ccc2F)nc1Nc1ccncc1C(=O)NOCC1CC1 [Compound 129, 4-[2-(5-Chloro-2-fluoro-phenyl)-5-methoxy-pyrimidin-4-ylamino]-N-cyclopropylmethoxy-nicotinamide] |
| 120 | CN(C)c1cnc(-c2cc(Cl)ccc2F)nc1Nc1ccncc1C(=O)NCC(C)(C)O [Compound 51] |
| 70 | COc1cnc(-c2cc(Cl)ccc2F)nc1Nc1ccncc1C(=O)NCCn1cccc1 [Compound 57, 4-[2-(5-Chloro-2-fluoro-phenyl)-5-methoxy-pyrimidin-4-ylamino]-N-(2-pyrrol-1-yl-ethyl)-nicotinamide] |
| 60 | COc1cnc(-c2cc(Cl)ccc2F)nc1Nc1ccncc1C(=O)NCCCn1ccnc1 [Compound 10, 4-[2-(5-Chloro-2-fluoro-phenyl)-5-methoxy-pyrimidin-4-ylamino]-N-(3-inidazol-1-yl-propyl)-nicotinamide] |
| 63 | COc1cnc(-c2cc(Cl)ccc2F)nc1Nc1ccncc1C(=O)NCCCNCCC1O[C@H](CO)[C@@H](O)[C@H](O)[C@H]1O (stereo partly drawn) [Compound 127, 4-[2-(5-Chloro-2-fluoro-phenyl)-5-methoxy-pyrimidin-4-ylamino]-N-{3-[2-(3,4,5-trihydroxy-6-hydroxymethyl-tetrahydro-pyran-2-yl)-ethylamino]-propyl}-nicotinamide] |
| 150 | CCNC(=O)NCCNC(=O)c1cnccc1Nc1nc(-c2cc(Cl)ccc2F)ncc1OC [Compound 69, 4-[2-(5-Chloro-2-fluoro-phenyl)-5-methoxy-pyrimidin-4-ylamino]-N-[2-(3-ethyl-ureido)-ethyl]-nicotinamide] |
| 120 | COc1cnc(-c2cc(Cl)ccc2F)nc1Nc1ccncc1C(=O)NCCCN1CCCC1=O [Compound 11, 4-{2-(5-Chloro-2-fluoro-phenyl)-5-methoxy-pyrimidin-4-ylamino]-N-[3-(2-oxo-pyrrolidin-1-yl)-propyl]-nicotinamide] |
| 3960 | CC(C)c1cnc(-c2cc(Cl)ccc2F)nc1Nc1ccncc1C(=O)N[C@H](C(N)=O)[C@@H](C)O [Compound 85, N-(1-Carbamoyl-2-hydroxy-propyl)-4-[2-(5-chloro-2-fluoro-phenyl)-5-isopropyl-pyrimidin-4-ylamino]-nicotinamide] |
| 2370 | COc1cnc(-c2cc(Cl)ccc2F)nc1Nc1ccncc1C(=O)NCC1CN(Cc2ccccc2)CCO1 (stereo not drawn) [Compound 30, N-(4-Benzyl-morpholin-2-ylmethyl)-4-[2-(5-chloro-2-fluoro-phenyl)-5-methoxy-pyrimidin-4-ylamino)-nicotinamide] |
| 10 | COc1cnc(-c2cc(Cl)ccc2F)nc1Nc1ccncc1C(=O)NCCNCCO [Compound 6, 4-[2-(5-Chloro-2-fluoro-phenyl)-5-methoxy-pyrimidin-4-ylamino]-N-[2-(2-hydroxy-ethylamino)-ethyl]-nicotinamide] |
| 360 | COc1cnc(-c2cc(Cl)ccc2F)nc1Nc1ccncc1C(=O)NCC(O)CN1CCOCC1 (stereo not drawn) [Compound 73, 4-[2-(5-Chloro-2-fluoro-phenyl)-5-methoxy-pyrimidin-4-ylamino]-N-(2-hydroxy-3-morpholin-4-yl-propyl)-nicotinamide] |

| Structure (SMILES) | IC50 [nM] |
| --- | --- |
| COc1cnc(-c2cc(Cl)ccc2F)nc1Nc1ccncc1C(=O)NCCNCCOC1O[C@H](COC(C)=O)[C@H](OC(C)=O)[C@H](OC(C)=O)[C@H]1OC(C)=O (stereo partly drawn) [Compound 157, Acetic acid 3,4,5-triacetoxy-6-{2-[2-[{4-[2-(5-chloro-2-fluoro-phenyl)-5-methoxy-pyrimidin-4-ylamino]-pyridine-3-carbonyl}amino)-ethylamino]-ethoxy}-tetrahydro-pyran-2-ylmethyl-ester] | 25 |

Same assay, conditions: 10 uM ATP, 170 nM TGFβ R1, room temperature 20 minutes, read-out: IC50 for Kinase Inhibition

| IC50 [nM] | Structure (SMILES) |
| --- | --- |
| 11 | COCCCNC(=O)c1cnccc1Nc1nc(-c2cc(Cl)ccc2F)ncc1C(C)C [Compound 186, 4-[2-(5-Chloro-2-fluoro-phenyl)-5-isopropyl-pyrimidin-4-ylamino]-N-(3-methoxy-propyl)-nicotinamide] |
| 19 | CC(C)c1cnc(-c2cc(Cl)ccc2F)nc1Nc1ccncc1C(=O)NC[C@H](C)OC(=O)CN [Compound 229, Amino-acetic acid 2-{[4-[2-(5-chloro-2-fluoro-phenyl)-5-isopropyl-pyrimidin-4-ylamino]-pyridine-3-carbonyl}-amino]-1-methyl-ethyl ester] |
| 148 | CC(O)CNC(=O)c1c[n+]([O-])ccc1Nc1nc(-c2cc(Cl)ccc2F)ncc1C(C)C (stereo not drawn) [Compound 198, 4-[2-(5-Chloro-2-fluoro-phenyl)-5-isopropyl-pyrimidin-4-ylamino]-N-(2-hydroxy-propyl)-1-oxy-nicotinamide] |
| 1090 | CC(C)c1cnc(-c2cc(Cl)ccc2F)nc1Nc1ccncc1C(=O)N1CCN[C@@H](C(C)C)C1 [Compound 231, {4-[2-(5-Chloro-2-fluoro-phenyl)-5-isopropyl-pyrimidin-4-ylamino]-pyridin-3-yl}-(3-isopropyl-piperazin-1-yl)-methanone] |
| 41 | CC(C)c1cnc(-c2cc(Cl)ccc2F)nc1Nc1ccncc1C(=O)NCCC(=O)N1CCC[C@H]1C(=O)N(C)C [Compound 194, 4-[2-(5-Chloro-2-fluoro-phenyl)-5-isopropyl-pyrimidin-4-ylamino]-N-[3-(2-dimethyl-carbamoyl-pyrrolidin-1-yl)-3-oxo-propyl]-nicotinamide] |
| 44 | O=C(NCCCn1ccnc1)c1cnccc1Nc1nc(-c2cc(Cl)ccc2F)ncc1C1CCCC1 [Compound 219] |
| 33 | COc1cnc(-c2cc(Cl)ccc2F)nc1Nc1ccncc1C(=O)NCCCOCC(O)CO (stereo not drawn) [Compound 163, 4-[2-(5-Chloro-2-fluoro-phenyl)-5-methoxy-pyrimidin-4-ylamino]-N-[3-(2,3-dihydroxy-propoxy)-propyl]-nicotinamide] |
| 1460 | COc1cnc(-c2cc(Cl)ccc2F)nc1Nc1ccncc1C(=O)N1CCC[C@H](O)C1 [Compound 221, {4-[2-(5-Chloro-2-fluoro-phenyl)-5-methoxy-pyrimidin-4-ylamino]-pyridin-3-yl}-(3-hydroxy-piperidin-1-yl)-methanone] |
| 283 | CC(C)c1cnc(-c2cc(Cl)ccc2F)nc1Nc1ccncc1C(=O)N1CCC[C@H](O)C1 [Compound 214, {4-[2-(5-Chloro-2-fluoro-phenyl)-5-isopropyl-pyrimidin-4-ylamino]-pyridin-3-yl}-(3-hydroxy-piperidin-1-yl)-methanone] |
